Each block holds one compound with its values, some of them ahead of it.
chromatographic logP (physchem; logP): 3.76
SMILES: CCC(C)c1c(Cl)nc2c(C(=O)OC)cnn2c1N[C@@H](C)C(F)(F)F (stereo partly drawn) [methyl 5-chloro-6-(sec-butyl)-7-[(S)-3-trifluoroisopropylamino]pyrazolo[1,5-a]pyrimidine-3-carboxylate]

chromatographic logP (physchem; logPs): 0.55
SMILES: COC(=O)c1cnn2c(O)c(-c3c(F)cccc3Cl)c(O)nc12 [methyl 6-(2-chloro-6-fluorophenyl)-5,7-dihydroxypyrazolo[1,5-a]pyrimidine-3-carboxylate]

chromatographic logP (physchem; logPs): 4.6
SMILES: COC(=O)c1cnn2c(NC(C)C(C)C)c(-c3sccc3C)c(OC)nc12 (stereo not shown) [methyl 7-(1,2-dimethylpropylamino)-5-methoxy-6-(3-methylthiophen-2-yl)pyrazolo[1,5-a]-pyrimidine-3-carboxylate]

The next lines start with the compound.

SMILES: CCOP(=O)(OCC)c1cnn2c(NC(C)C(C)(C)C)c(-c3ccc(F)cc3Cl)c(Cl)nc12 (stereo not shown) [Example XXIII, diethyl {5-chloro-6-(2-chloro-4-fluorophenyl)-7-[(1,2,2-trimethylpropyl)-amino]pyrazolo[1,5-a]pyrimidin-3-yl}phosphonate]
chromatographic logP (logP (HPLC)): 4.48

SMILES: CCOP(=O)(O)c1cnn2c(NC(C)C(C)(C)C)c(-c3ccc(F)cc3Cl)c(Cl)nc12 (stereo not shown) [Example XXIV, ethyl hydrogen {5-chloro-6-(2-chloro-4-fluorophenyl)-7-[(1,2,2-trimethylpropyl)-amino]pyrazolo[1,5-a]pyrimidin-3-yl}phosphonate]
chromatographic logP (logP (HPLC)): 3.01

SMILES: COC(=O)c1cnn2c(N[C@@H](C)C(C)C)c(C3CCCC3)c(Cl)nc12 [methyl 5-chloro-6-cyclopentyl-7-[(S)-3-methyl-2-butylamino]pyrazolo[1,5-a]pyrimidine-3-carboxylate]
chromatographic logP (physchem; logP): 4.72

SMILES: COC(=O)c1cnn2c(N[C@@H](C)C(F)(F)F)c(C3CCCC3)c(Cl)nc12 [methyl 5-chloro-6-cyclopentyl-7-[(S)-3-trifluoroisopropylamino]pyrazolo[1,5-a]pyrimidine-3-carboxylate]
chromatographic logP (physchem; logP): 3.89
